In brackets after ≈: the same amount, converted by molar mass.
Legend:
Assay type in all cases: cell-based
[1] = Cytotoxicity against 3T3 cells; details: mouse, 3T3 cells; read-out: Cytotoxicity 3T3 EC50
[2] = system: P. falciparum 3D7 (chloroquine-sensitive); assay: Anti-malarial activity, P. falciparum 3D7 culture, 72 hour, DNA content by flow cytometry; details: Plasmodium falciparum, 3D7, 72 h, synchronized ring-stage parasites
Experimental: Numerous compounds were screened in cultures of the malaria parasite P. falciparum 3D7 (chloroquine-sensitive) and DD2 (chloroquine-resistant). The compounds were also screened for toxixcity against 3T3 cells, HepG2 cells, and in a hemolysis assay. In brief, P. falciparum parasites were cultured in RPMI 1640 (Invitrogen) supplemented with Albumax II (Invitrogen). For synchronization, schizont stage parasites were magnet purified using a SuperMACS™ II Cell Separation Unit (Miltenyi Biotech). For IC50 determinations, synchronized ring-stage parasites were plated at 0.5% parasitemia and 8% hematocrit in 96-well plates at a total volume of 50 μL. Serial dilutions of 2× concentration of the respective compound, ranging from 2.5 μM to 20 nM, were added to the wells to bring the total volume up to 100 μL and 4% hematocrit. Compounds were assayed for a 72 hour period, after which the cultures were fixed with a solution of 4% paraformaldehyde and 0.08% glutaraldhyde in PBS. The cells were then permeabilized with 0.25% Triton X-100, and SYTOX Green Nucleic Acid Stain (Invitrogen) in PBS was added to a final concentration of 5 μM. DNA content, as an indicator of parasitemia, was analyzed on an Accuri C6 Flow Cytometer with C-Sampler. IC50 curves were generated using GraphPad Prism (GraphPad Software).

[3] = Cytotoxicity against HepG2 cells; details: human, HepG2 cells; read-out: Cytotoxicity HepG2 EC50
in vitro = assay: in vitro

SMILES	EC50 [1]	IC50 [2]	EC50 [3]	EC50 (in vitro)
COc1cc(SCCN)c(C(F)(F)F)cc1NC(=O)c1cc(C(=O)Nc2cc(C(F)(F)F)c(SCCN)cc2OC)nc(SCCN)n1 [Compound 183]	694 µM	0.383 µM	739 µM	5 µg/mL (≈ 6.76 µM)
COc1cc(SCCNC(=N)N)c(C(F)(F)F)cc1NC(=O)c1cc(C(=O)Nc2cc(C(F)(F)F)c(SCCNC(=N)N)cc2OC)nc(SCCNC(=N)N)n1 [Compound 184]	478 µM	0.129 µM	> 1000 µM	4 µg/mL (≈ 4.62 µM)
N#Cc1cccc(C(=O)Nc2cc(C(F)(F)F)cc(NC(=O)c3cc(C(=O)Nc4cc(C(F)(F)F)cc(NC(=O)c5cccc(C#N)c5)c4O[C@@H]4CCNC4)ncn3)c2O[C@@H]2CCNC2)c1 [Compound 186]	63 µM	0.177 µM	> 1000 µM	107 µg/mL (≈ 117 µM)
NCCSc1ccc(NC(=O)c2cc(C(=O)Nc3ccc(SCCN)c(C(F)(F)F)c3)ncn2)cc1C(F)(F)F [Compound 188]	1 µM	0.137 µM	9 µM	4 µg/mL (≈ 6.62 µM)
NCCc1cccc(NC(=O)c2cccc(C(=O)Nc3cccc(CCN)c3)n2)c1 [Compound 191]	> 1000 µM	0.458 µM	> 1000 µM	> 1000 µg/mL
NCCSc1ccc(NC(=O)c2cc(C(=O)Nc3ccc(SCCN)cc3)ncn2)cc1 [Compound 192]	953 µM	0.182 µM	> 1000 µM	32 µg/mL (≈ 68.3 µM)
O=C(Nc1ccc(O[C@@H]2CCNC2)cc1)c1cccc(C(=O)Nc2ccc(O[C@@H]3CCNC3)cc2)n1 [Compound 193]	> 1000 µM	0.045 µM	> 1000 µM	> 1000 µg/mL
O=C(Nc1ccc(O[C@@H]2CCNC2)cc1)c1cncc(C(=O)Nc2ccc(O[C@@H]3CCNC3)cc2)c1 [Compound 194]	> 1000 µM	0.187 µM	> 1000 µM	> 1000 µg/mL
O=C(Nc1ccc(O[C@@H]2CCNC2)cc1)c1ccnc(C(=O)Nc2ccc(O[C@@H]3CCNC3)cc2)c1 [Compound 195]	> 1000 µM	0.045 µM	> 1000 µM	> 1000 µg/mL
O=C(Nc1ccc(OC2CNC2)cc1)c1cc(C(=O)Nc2ccc(OC3CNC3)cc2)ncn1 [Compound 196]	> 1000 µM	0.03 µM	940 µM	164 µg/mL (≈ 356 µM)
O=C(Nc1ccc(O[C@@H]2CCNC2)cc1)c1cc(C(=O)Nc2ccc(O[C@@H]3CCNC3)cc2)ncn1 [Compound 197]	405 µM	0.014 µM	881 µM	187 µg/mL (≈ 383 µM)
NC1CCC(Oc2ccc(NC(=O)c3cc(C(=O)Nc4ccc(OC5CCC(N)CC5)cc4)ncn3)cc2)CC1 (stereo not drawn) [Compound 200]	27 µM	0.004 µM	37 µM	24 µg/mL (≈ 44.1 µM)
O=C(Nc1ccc(N2CCNCC2)cc1)c1cc(C(=O)Nc2ccc(N3CCNCC3)cc2)ncn1 [Compound 201]	137 µM	< 0.001 µM	234 µM	48 µg/mL (≈ 98.6 µM)
CC(=O)Nc1cc(C(F)(F)F)cc(NC(=O)c2cc(C(=O)Nc3cc(C(F)(F)F)cc(N)c3SCCN)ncn2)c1SCCN [Compound 203]	15 µM	0.085 µM	45 µM	66 µg/mL (≈ 97.5 µM)
CN1CC[C@@H](Oc2ccc(NC(=O)c3cc(C(=O)Nc4ccc(O[C@@H]5CCN(C)C5)c(C(F)(F)F)c4)ncn3)cc2C(F)(F)F)C1 [Compound 204]	477 µM	0.103 µM	483 µM	88 µg/mL (≈ 135 µM)
O=C(Nc1ccc(O[C@@H]2CCNC2)c(Cl)c1)c1cc(C(=O)Nc2ccc(O[C@@H]3CCNC3)c(Cl)c2)ncn1 [Compound 205]	40 µM	0.07 µM	307 µM	176 µg/mL (≈ 316 µM)
N#Cc1cc(NC(=O)c2cc(C(=O)Nc3ccc(O[C@@H]4CCNC4)c(C#N)c3)ncn2)ccc1O[C@@H]1CCNC1 [Compound 206]	> 1000 µM	0.179 µM	> 1000 µM	> 1000 µg/mL

SMILES	EC50 [1]	IC50 [2]	EC50 [3]	EC50 (in vitro)
O=C(Nc1ccc(O[C@H]2CCNC2)cc1)c1cc(C(=O)Nc2ccc(O[C@H]3CCNC3)cc2)ncn1 [Compound 207]	478 µM	0.182 µM	819 µM	29 µg/mL (≈ 59.4 µM)
O=C(Nc1ccc(C2CCNCC2)cc1)c1cc(C(=O)Nc2ccc(C3CCNCC3)cc2)ncn1 [Compound 208]	122 µM	0.139 µM	183 µM	12 µg/mL (≈ 24.8 µM)
O=C(Nc1ccc(OC2CCNCC2)nc1)c1cc(C(=O)Nc2ccc(OC3CCNCC3)nc2)ncn1 [Compound 214]	> 1000 µM	> 0.1 µM	> 1000 µM	> 1000 µg/mL
O=C(Nc1ccc(O[C@@H]2CCNC2)nc1)c1cc(C(=O)Nc2ccc(O[C@@H]3CCNC3)nc2)ncn1 [Compound 215]	> 1000 µM	> 0.1 µM	> 1000 µM	> 1000 µg/mL
CN(C)C1CCN(c2ccc(NC(=O)c3cccc(C(=O)Nc4ccc(N5CCC(N(C)C)CC5)cc4)n3)cc2)CC1 [Compound 216]	> 1000 µM	> 0.1 µM	> 1000 µM	> 1000 µg/mL
CN(C)C1CCN(c2ccc(NC(=O)c3ccnc(C(=O)Nc4ccc(N5CCC(N(C)C)CC5)cc4)c3)cc2)CC1 [Compound 217]	> 1000 µM	> 0.1 µM	> 1000 µM	> 1000 µg/mL
N=C(N)NCCc1cccc(-c2cc(-c3cccc(CCNC(=N)N)c3)ncn2)c1 [Compound 221]	> 1000 µM	0.08 µM	> 1000 µM	> 1000 µg/mL
N=C(N)NCCSc1nc(-c2cccc(CCNC(=N)N)c2)cc(-c2cccc(CCNC(=N)N)c2)n1 [Compound 222]	764 µM	0.551 µM	> 1000 µM	> 1000 µg/mL
NCCCc1cccc(-c2cncc(-c3ccc(-c4cncc(-c5cccc(CCCN)c5)c4)s3)c2)c1 [Compound 232]	37 µM	0.273 µM	56 µM	6 µg/mL (≈ 11.9 µM)
N=C(N)NCCCc1cccc(-c2cncc(-c3ccc(-c4cncc(-c5cccc(CCCNC(=N)N)c5)c4)s3)c2)c1 [Compound 233]	61 µM	0.737 µM	88 µM	2 µg/mL (≈ 3.4 µM)
N=C(N)NCCc1ccc(-c2ccc(-c3ccc(CCNC(=N)N)cc3)s2)cc1 [Compound 248]	50 µM	0.003 µM	54 µM	24 µg/mL (≈ 59 µM)
c1cc(N2CCNCC2)ccc1-c1ccc(-c2ccc(N3CCNCC3)cc2)s1 [Compound 252]	> 1000 µM	0.004 µM	> 1000 µM	12 µg/mL (≈ 29.7 µM)
N=C(N)N1CCN(c2ccc(-c3ccc(-c4ccc(N5CCN(C(=N)N)CC5)cc4)s3)cc2)CC1 [Compound 253]	419 µM	0.107 µM	606 µM	8 µg/mL (≈ 16.4 µM)
N=C(N)N1CCN(c2ccc(-c3ccc(-c4ccc(N5CCN(C(=N)N)CC5)nc4)s3)cn2)CC1 [Compound 254]	32 µM	0.154 µM	49 µM	36 µg/mL (≈ 73.4 µM)
c1cc(N2CCNCC2)ccc1-c1ccc(-c2ccc(N3CCNCC3)cc2)o1 [Compound 255]	29 µM	0.152 µM	45 µM	28 µg/mL (≈ 72.1 µM)
c1cc(-c2ccc(N3CCNCC3)nc2)cc(-c2ccc(N3CCNCC3)nc2)c1 [Compound 257]	40 µM	> 0.1 µM	220 µM	> 1000 µg/mL

Reference: patent US20150094294A1, “COMPOUNDS AND METHODS FOR TREATING MALARIA” (Cellceutix Corporation, priority 2012, published 2015)
